The target of experiment [1] is T1, Guinea pig urinary ACE (Cavia porcellus, UniProt H0UWL7).
T1 sequence (H0UWL7 33-1302): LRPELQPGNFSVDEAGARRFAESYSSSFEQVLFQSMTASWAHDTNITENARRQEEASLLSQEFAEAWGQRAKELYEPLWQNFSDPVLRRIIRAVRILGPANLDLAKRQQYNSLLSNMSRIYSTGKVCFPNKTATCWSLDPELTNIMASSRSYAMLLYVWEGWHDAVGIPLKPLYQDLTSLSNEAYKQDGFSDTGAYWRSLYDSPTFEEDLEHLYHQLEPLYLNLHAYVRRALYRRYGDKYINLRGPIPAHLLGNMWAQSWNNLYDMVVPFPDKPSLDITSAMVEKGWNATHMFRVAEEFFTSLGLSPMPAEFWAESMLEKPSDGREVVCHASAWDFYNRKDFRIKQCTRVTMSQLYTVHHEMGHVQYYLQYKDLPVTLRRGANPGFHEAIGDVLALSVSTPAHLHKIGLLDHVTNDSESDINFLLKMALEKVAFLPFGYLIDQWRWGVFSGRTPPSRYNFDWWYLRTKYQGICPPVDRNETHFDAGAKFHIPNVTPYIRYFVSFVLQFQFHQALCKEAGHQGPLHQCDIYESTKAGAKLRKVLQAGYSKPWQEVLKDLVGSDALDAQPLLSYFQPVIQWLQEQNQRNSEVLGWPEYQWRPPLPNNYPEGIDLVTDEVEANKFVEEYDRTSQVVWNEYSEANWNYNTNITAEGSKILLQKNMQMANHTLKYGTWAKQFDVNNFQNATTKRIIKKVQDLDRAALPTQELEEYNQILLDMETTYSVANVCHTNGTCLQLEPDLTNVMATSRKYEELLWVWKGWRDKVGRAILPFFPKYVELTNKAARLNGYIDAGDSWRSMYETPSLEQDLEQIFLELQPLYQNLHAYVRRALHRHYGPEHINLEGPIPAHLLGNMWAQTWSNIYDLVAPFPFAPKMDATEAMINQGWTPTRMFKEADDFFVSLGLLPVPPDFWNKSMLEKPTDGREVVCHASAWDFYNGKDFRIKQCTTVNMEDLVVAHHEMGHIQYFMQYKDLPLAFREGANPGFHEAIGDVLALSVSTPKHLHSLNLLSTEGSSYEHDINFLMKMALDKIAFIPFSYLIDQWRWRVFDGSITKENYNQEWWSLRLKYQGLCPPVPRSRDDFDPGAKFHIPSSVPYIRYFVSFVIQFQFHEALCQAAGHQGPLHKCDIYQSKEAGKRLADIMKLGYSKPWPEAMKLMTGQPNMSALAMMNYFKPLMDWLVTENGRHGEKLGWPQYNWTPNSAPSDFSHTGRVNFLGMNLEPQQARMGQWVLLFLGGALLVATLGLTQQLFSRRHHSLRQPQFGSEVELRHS
Nature of the experiment: Sulfate and chloride effects on substrate hydrolysis (Example 3). The format is biochemical. The settings on record: 37° C.

Experiment [2] has as its target ACE (Homo sapiens, UniProt P12821). The settings on record: chloride absent; cited from earlier work.

This is an account of results in US4276378A, “High sensitivity assays for angiotensin converting enzyme” (priority 1977, dated 1981).

Peptide text beside a SMILES is read from it. * marks the point of attachment. Bz = O=C(c1ccccc1)*

Sequence of ACE (P12821 30-1306, species assumed): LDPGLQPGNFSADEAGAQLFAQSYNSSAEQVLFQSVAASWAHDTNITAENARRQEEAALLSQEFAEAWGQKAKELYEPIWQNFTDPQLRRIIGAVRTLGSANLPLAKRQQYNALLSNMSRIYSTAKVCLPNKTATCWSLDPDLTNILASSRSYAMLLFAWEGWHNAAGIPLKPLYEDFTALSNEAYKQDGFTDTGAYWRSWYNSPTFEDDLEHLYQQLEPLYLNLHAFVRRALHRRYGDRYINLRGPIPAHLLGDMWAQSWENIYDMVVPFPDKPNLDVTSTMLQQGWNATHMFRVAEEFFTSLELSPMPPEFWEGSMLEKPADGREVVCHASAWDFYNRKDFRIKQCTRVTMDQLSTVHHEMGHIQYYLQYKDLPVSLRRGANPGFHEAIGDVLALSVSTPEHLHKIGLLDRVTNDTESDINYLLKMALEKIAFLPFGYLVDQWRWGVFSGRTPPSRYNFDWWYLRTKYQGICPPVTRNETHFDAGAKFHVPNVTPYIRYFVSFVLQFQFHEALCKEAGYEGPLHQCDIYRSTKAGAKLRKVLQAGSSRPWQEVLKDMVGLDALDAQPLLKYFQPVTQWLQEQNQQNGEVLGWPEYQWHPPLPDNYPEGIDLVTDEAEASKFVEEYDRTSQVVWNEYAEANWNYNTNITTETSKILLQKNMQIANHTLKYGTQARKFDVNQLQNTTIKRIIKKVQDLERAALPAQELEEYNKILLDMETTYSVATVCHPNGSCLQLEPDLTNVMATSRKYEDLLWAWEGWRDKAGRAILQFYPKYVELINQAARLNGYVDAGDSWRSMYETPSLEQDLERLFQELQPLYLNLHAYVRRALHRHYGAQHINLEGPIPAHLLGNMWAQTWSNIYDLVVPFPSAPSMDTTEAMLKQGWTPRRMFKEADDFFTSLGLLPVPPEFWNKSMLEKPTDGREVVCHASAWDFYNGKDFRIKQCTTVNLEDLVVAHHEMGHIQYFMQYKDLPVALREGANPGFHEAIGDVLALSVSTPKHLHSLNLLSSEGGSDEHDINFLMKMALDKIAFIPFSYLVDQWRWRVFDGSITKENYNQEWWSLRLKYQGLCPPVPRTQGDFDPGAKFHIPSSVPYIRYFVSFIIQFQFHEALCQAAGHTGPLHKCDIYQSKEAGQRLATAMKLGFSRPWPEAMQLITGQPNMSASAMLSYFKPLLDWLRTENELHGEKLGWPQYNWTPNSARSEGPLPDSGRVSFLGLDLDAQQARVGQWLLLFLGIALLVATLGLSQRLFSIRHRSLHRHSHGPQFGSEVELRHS

With `CC(C)C[C@H](NC(=O)[C@H](Cc1c[nH]cn1)NC(=O)CNC(=O)c1ccccc1)C(=O)O` [HipHisLeu] (Bz-Gly-His-Leu-OH), the “Reaction Velocity-Percent of Substrate Hydrolyzed in 10 minutes” value (from here on “Reaction Velocity-Percent”) came out at 0% in experiment [1] (HipHisLeu, 0.05M Hepes, pH 8.0, 0.0M NaCl, Na2 SO4 concentration 0); 0% in experiment [1] (HipHisLeu, 0.05M Hepes, pH 8.0, 0.0M NaCl, Na2 SO4 concentration 0.1); 0% in experiment [1] (HipHisLeu, 0.05M Hepes, pH 8.0, 0.0M NaCl, Na2 SO4 concentration 0.2); 0% in experiment [1] (HipHisLeu, 0.05M Hepes, pH 8.0, 0.0M NaCl, Na2 SO4 concentration 0.3); 0.1% in experiment [1] (HipHisLeu, 0.05M Hepes, pH 8.0, 0.0M NaCl, Na2 SO4 concentration 0.4); 0.1% in experiment [1] (HipHisLeu, 0.05M Hepes, pH 8.0, 0.0M NaCl, Na2 SO4 concentration 0.5). Moreover, the “Reaction Velocity-Percent” value is reported as 0.25% in experiment [1] (HipHisLeu, 0.05M Hepes, pH 8.0, 0.0M NaCl, Na2 SO4 concentration 0.6); 0.25% in experiment [1] (HipHisLeu, 0.05M Hepes, pH 8.0, 0.0M NaCl, Na2 SO4 concentration 0.7); 0.25% in experiment [1] (HipHisLeu, 0.05M Hepes, pH 8.0, 0.0M NaCl, Na2 SO4 concentration 0.75); 0.25% in experiment [1] (HipHisLeu, 0.05M Hepes, pH 8.0, 0.0M NaCl, Na2 SO4 concentration 0.8); 0.7% in experiment [1] (HipHisLeu, 0.05M Hepes, pH 8.0, 0.0M NaCl, Na2 SO4 concentration 0.9); 3.9% in experiment [1] (HipHisLeu, 0.05M Hepes, pH 8.0, 0.0M NaCl, Na2 SO4 concentration 1.2). The “Reaction Velocity-Percent” value stood at 0.3% in experiment [1] (HipHisLeu, 0.05M Hepes, pH 8.0, 0.1M NaCl, Na2 SO4 concentration 0); 4.1% in experiment [1] (HipHisLeu, 0.05M Hepes, pH 8.0, 0.1M NaCl, Na2 SO4 concentration 0.4); 8.3% in experiment [1] (HipHisLeu, 0.05M Hepes, pH 8.0, 0.1M NaCl, Na2 SO4 concentration 0.6); 12.05% in experiment [1] (HipHisLeu, 0.05M Hepes, pH 8.0, 0.1M NaCl, Na2 SO4 concentration 0.75); 12.25% in experiment [1] (HipHisLeu, 0.05M Hepes, pH 8.0, 0.1M NaCl, Na2 SO4 concentration 0.9). In addition, the inhibition of hydrolysis in experiment [2] is 86%.

With `C[C@H](NC(=O)[C@H](Cc1ccccc1)NC(=O)c1ccccc1)C(=O)N1CCC[C@H]1C(=O)O` [benzoylPheAlaPro, benzoyl-Phe-Ala-Pro] (Bz-Phe-Ala-Pro-OH), the “Reaction Velocity-Percent” value in experiment [1] (benzPheAlaPro, 0.05 Hepes, pH 8.0, 0.15M HCl, Na2 SO4 concentration 0) is 4.4%; in experiment [1] (benzPheAlaPro, 0.05 Hepes, pH 8.0, 0.15M HCl, Na2 SO4 concentration 0.1) it was 5.0%; in experiment [1] (benzPheAlaPro, 0.05 Hepes, pH 8.0, 0.15M HCl, Na2 SO4 concentration 0.2), 4.45%; in experiment [1] (benzPheAlaPro, 0.05 Hepes, pH 8.0, 0.15M HCl, Na2 SO4 concentration 0.3) it was 4.85%; in experiment [1] (benzPheAlaPro, 0.05 Hepes, pH 8.0, 0.15M HCl, Na2 SO4 concentration 0.5), 5.6%.
